Data set [1] concerns the target T1, TRKB-ECD-His (extracellular domain of TRKB) (Homo sapiens, UniProt Q16620).
T1 construct: extracellular domain of TRKB (TRKB-ECD) (residues 32–429, XP_016870240); Saccharomyces cerevisiae α-factor secretion signal (N, cleaved yes); made in house; host or cells: Pichia pastoris
Briefly: Tryptophan fluorescence quenching assay. The conditions noted are these: TRKB-ECD-His 50 nM in PBS; excitation 295 nm, emission 330 nm; compounds 0–1000 nM; read-out: TRKB-ECD binding affinity (KD). An excerpt: The cDNA fragment containing the full-length extracellular domain of TRKB (TRKB-ECD) (residues 32–429, XP_016870240) was amplified from pDONR223-NTRK2 plasmid (Addgene, Watertown, MA, USA) using forward primer 5′-ctcgagaaaagagaggctgaagctTGTCCCACGTCCTGAAATG (XhoI site and Kex2 cleavage of the signal sequence in lowercase letters) and reverse primer 5′-gtcgac[…] (SalI site in lowercase letters). After cloning and sequencing, the TRKB-ECD fragment was excised with XhoI and SalI and subcloned into Pichia expression vector pGAPZα A (Invitrogen). The AvrII-linearized plasmid was then transformed into Pichia pastoris, and stable transformants selected and cultured at 30 °C for 4 days for constitutive expression of recombinant His-tagged TRKB-ECD. The secreted TRKB-ECD-His in cultured medium was purified using Ni-NTA His•Bind resins (Novagen, Madison, WI 53719, USA) according to the supplier’s instructions. Protein purity was examined by Coomassie blue staining of SDS-polyacrylamide gel as well as immunoblotting using anti-His (1:2000; Acris, Herford, Germany) and anti-TRKB (1:1000; Cell Signaling) antibodies.
The interaction between TRKB-ECD-His and LM-031, LMDS-1 or LMDS-2 was determined by tryptophan fluorescence titration. 7,8-DHF (Sigma-Aldrich) was included as a positive control. Tryptophan fluorescence spectra of TRKB-ECD-His (50 nM in PBS) were obtained before and after titration with different concentrations of test compounds (0–1000 nM). The fluorescent quenching was conducted in a cuvette with a 1 cm path length cell by an F-7000 fluorescence spectrophotometer (Hitachi, Tokyo, Japan) at room temperature. The intrinsic fluorescence spectra of TRKB were recorded with excitation wavelength set at 295 nm and emission wavelength in the range 300–400 nm. The dissociation constant (KD) of 7,8-DHF, LM-031, LMDS-1 and LMDS-2 to TRKB was determined by fitting the normalized fluorescence intensity at 330 nm under different concentrations of test compounds using the equation derived from Liu et al.:KD = [P]T (f − 1) + [D]T (1/f − 1), where f is the fractional change, and [P]Tand [D]Tare the total concentration of TRKB-ECD-His protein and test compound, respectively.

Data set [2] is described as follows: High-content analysis of ΔK280 tauRD-DsRed fluorescence and cell number (folding reporter). It is filed as cell-based, human. The settings on record: human; induced ΔK280 tauRD-DsRed SH-SY5Y; compounds 2.5–10 µM; read-out: IC50 cytotoxicity based on the cell number analyzed. The procedure:
(§1) On day 1, ∆K280 tauRD-DsRed SH-SY5Y cells were seeded in a 96-well plate (3 × 10^4/well), with retinoic acid (10 µM; Sigma-Aldrich) added to induce neuronal differentiation. […] […] For ROS measurement, dichloro-dihydro-fluorescein diacetate (DCFH-DA, 10 µM; Invitrogen, Carlsbad, CA, USA) was added to the cells on day 8 and incubated at 37 °C for 30 min.

Data set [3] has as its system ΔK280 tauRD-DsRed SH-SY5Y cells. Briefly: High-content analysis of neurite outgrowth. It is filed as cell-based, human. The conditions noted are these: 10 µM. How it is done:
As described, ∆K280 tauRD-DsRed SH-SY5Y cells were seeded in a 24-well plate (5 × 10^4/well) with retinoic acid addition on day 1, treated with tested compounds (10 µM) and ∆K280 tauRD-DsRed expression was induced with doxycycline (2 μg/mL) on day 2. On day 8, after being fixed in 4% paraformaldehyde for 15 min, permeabilized in 0.1% Triton X-100 for 10 min and blocked in 3% bovine serum albumin (BSA) for 20 min, the cells were stained with TUBB3 (neuronal class III β-tubulin) primary antibody (1:1000; BioLegend, San Diego, CA, USA) at 4 °C overnight, followed by goat anti-rabbit Alexa Fluor® 555 secondary antibody (1:1000; Molecular probes) at room temperature for 2 h, with 4′-6-diamidino-2-phenylindole (DAPI, 0.1 µg/mL; Sigma-Aldrich) included for nuclei staining. Neuronal images were captured using the high-content analysis system as described. Neurite total length (μm), processes (primary neurite extensions projecting directly from the cell body) and branching (points at which primary neurites bifurcated) were analyzed using Neurite Outgrowth Application Module (MetaXpress; Molecular Devices). Around 5000 cells were analyzed in each of three independent experiments for each sample.

A short description of data set [4]: DPPH free radical-scavenging assay. The settings on record: compounds tested 10–80 μM; DPPH 100 µM; linear interpolation. The procedure: The potential free radical-scavenging activity of test compounds was assayed using stable free radical 1,1-diphenyl-2-picrylhydrazyl (DPPH) (Sigma-Aldrich). Briefly, kaempferol, LM-031 or LMDS-1 to -4 (10–80 µM) was added to DPPH (100 µM in 99% ethanol). The solution was vortexed for 15 s, left for 30 min at room temperature, the mixture was transferred to a 96-well UV-transparent microplate and the absorbance at 517 nm was measured using a Multiskan^TM GO microplate spectrophotometer (Thermo Fisher Scientific, Waltham, MA, USA). Radical-scavenging activity was calculated using the equation: 1 − (absorbance of sample/absorbance of control) × 100%, and EC50 estimated using the linear interpolation method.
Background: Loss of DPPH colour is used to gauge radical scavenging.

The target in data set [5] is T2, E. coli-expressed ΔK280 tauRD protein (Homo sapiens, UniProt P10636, DEL597-597).
T2 construct: assessed by using E. coli-expressed ΔK280 tauRD protein; made in house; host or cells: E. coli
T2 sequence (P10636 with tags, fused parts or gaps DEL597-597): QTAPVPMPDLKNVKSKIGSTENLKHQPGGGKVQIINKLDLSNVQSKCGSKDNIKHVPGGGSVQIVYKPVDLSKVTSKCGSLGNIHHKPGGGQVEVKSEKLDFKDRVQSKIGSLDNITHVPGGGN
Briefly: Anti-ΔK280 tauRD aggregation assay (thioflavin T). It is filed as biochemical. The settings on record: compounds tested 1–10 μM, 20 μM protein, 48 h, linear interpolation, read-out: EC50 for ΔK280 tauRD aggregation inhibition. The procedure: Thioflavin T is widely used to visualize and quantify the presence of misfolded amyloid protein aggregates in vitro [74]. The tau aggregation inhibiting potential of Congo red, LM-031 and LMDS-1 to -4 was assessed by using E. coli-expressed ΔK280 tauRD protein [28]. Briefly, purified ΔK280 tauRD protein (20 μM) was incubated with Congo red or coumarin compounds (1–10 μM) in 150 mM NaCl and 20 mM Tris-HCl pH8.0, at 37 °C with shaking for 48 h to form aggregates. Then, thioflavin T (final 5 μM; Acros Organics, Geel, Belgium) was added and incubated for 25 min at room temperature. Fluorescence intensity of samples was recorded at excitation/emission wavelengths of 420/485 nm using an FLx800 microplate reader (BioTek, Winooski, VT, USA). The half maximal effective concentration (EC50) values were calculated by using a linear interpolation method.

Data set [6] is described as follows: Oxygen radical antioxidant capacity (ORAC) assay. The settings on record: compound at 100 μM. How it is done:
In addition, an oxygen radical antioxidant capacity (ORAC) assay was performed using an OxiSelect™ kit according to the manufacturer’s instruction (Cell Biolabs, San Diego, CA, USA). Briefly, Trolox standards (2.5–50 μM) and samples (4–100 μM) were diluted with 50% acetone. Blank (50% acetone), standards and samples were mixed with fluorescein and incubated at 37 °C for 30 min. Following the free radical initiator 2,2′-azobis(2-methylpropionamidine) dihydrochloride (AAPH), the produced peroxyl radicals (ROO•) quench the fluorescent probe over time. Antioxidants present in the assay block the peroxyl radical oxidation of the fluorescent probe. The course of the reaction was recorded for 60 min, with one measurement every five minutes using a BioTek FLx800 microplate reader. The excitation and emission wavelengths were set at 480 nm and 520 nm, respectively. To quantify the oxygen radical antioxidant activity in a sample, the area under the curve (AUC) for blank, standard and samples was calculated. After subtraction of the blank, the equivalent Trolox concentrations of samples were expressed based on the Trolox standard curve.

In another data set the test system is p-TRKB (Y516 and Y817). In words: Immunoblot of p-TRKB (Y516 and Y817). It is filed as cell-based, human. The settings on record: BDNF 100 ng/mL, LMDS-1/2 10 μM; induced untreated 77–83%; Figure 6B. How it is done:
(§2) ∆K280 tauRD-DsRed SH-SY5Y cells in 6-well plates (5 × 10^5/well) were treated with retinoic acid (10 µM) on day 1, followed by LMDS-1 or -2 (10 µM) and doxycycline (2 µg/mL) addition on day 2 as described. ERK inhibitor U0126 or PI3K inhibitor wortmannin (10 μM) (LC Laboratories, Woburn, MA, USA) was added on day 6. On day 8, the cells were collected for BDNF, BCL2, BAX and total/phosphorylated TRKB, ERK, AKT, CREB protein analyses as described.
(§3) ∆K280 tauRD-DsRed SH-SY5Y cells were lysed in buffer containing 50 mM Tris-HCl (pH 8.0), 150 mM NaCl, 1 mM EDTA (pH 8.0), 1 mM EGTA (pH 8.0), 0.1% SDS, 0.5% sodium deoxycholate, 1% Triton X-100 and protease (Sigma-Aldrich)/phosphatase (Roche, Basel, Switzerland) inhibitor cocktails. After two sonications with an interval of 30 min on ice, cell lysates were collected by centrifugation at 14,000× g for 30 min at 4 °C. Protein concentrations were determined using a Bradford assay (Bio-Rad, Hercules, CA, USA). Protein samples (25 µg) were separated by 10–12% SDS-PAGE and transferred to polyvinylidene difluoride (PVDF) membranes (Sigma-Aldrich). After blocking for 2 h with 10% skimmed milk or 5% BSA in 0.1% Tween 20 in Tris-buffered saline (TBST), the membrane was incubated with primary antibody against BDNF (1:500; Santa Cruz, Santa Cruz, CA, USA), BCL2 (1:500; BioVision), BAX (1:500; BioVision), TRKB (1:1000; Cell Signaling, Danvers, MA, USA), p-TRKB (Y516) (1:1000; Cell Signaling), p-TRKB (Y817) (1:1000; Millipore, Billerica, MA, USA), ERK (1:1000; Cell Signaling), p-ERK (T202/Y204) (1:500; Cell Signaling), AKT (1:1000; Cell Signaling), p-AKT (S473) (1:1000; Cell Signaling), CREB (1:1000; Santa Cruz), p-CREB (S133) (1:1000; Millipore), JNK (1:1000; Cell Signaling), p-JNK (T183/Y185) (1:1000; Cell Signaling) or loading control glyceraldehyde-3-phosphate dehydrogenase (GAPDH) (1:1000; MDBio, Taipei, Taiwan). After three washes with TBST, the immune complexes were detected using horseradish peroxidase-conjugated goat anti-mouse or goat anti-rabbit secondary IgG antibody (1:5000, GeneTex, Irvine, CA, USA) and enhanced chemiluminescence substrates luminol and peroxide (Millipore). The primary and secondary antibodies used were diluted with TBST. The chemiluminescent detection was performed on ImageQuant™ LAS 4000mini (GE Healthcare).

Data set [7] deals with ΔK280 tauRD-DsRed SH-SY5Y folding reporter cells. In words: High-content analysis of ΔK280 tauRD-DsRed fluorescence and cell number (folding reporter). It is filed as cell-based, human. The settings on record: BDNF at 100 ng/mL, LMDS-1/2 at 10 μM; untreated = 100%; Figure 6A. The procedure:
as §1

Another data set deals with p-CREB (S133). Briefly: Immunoblot of p-CREB (S133). The settings on record: BDNF 100 ng/mL, LMDS-1/2 10 μM; induced untreated 72%; Figure 6B. It is filed as cell-based, human. The procedure:
as §2, §3

T1 sequence (Q16620 32-429): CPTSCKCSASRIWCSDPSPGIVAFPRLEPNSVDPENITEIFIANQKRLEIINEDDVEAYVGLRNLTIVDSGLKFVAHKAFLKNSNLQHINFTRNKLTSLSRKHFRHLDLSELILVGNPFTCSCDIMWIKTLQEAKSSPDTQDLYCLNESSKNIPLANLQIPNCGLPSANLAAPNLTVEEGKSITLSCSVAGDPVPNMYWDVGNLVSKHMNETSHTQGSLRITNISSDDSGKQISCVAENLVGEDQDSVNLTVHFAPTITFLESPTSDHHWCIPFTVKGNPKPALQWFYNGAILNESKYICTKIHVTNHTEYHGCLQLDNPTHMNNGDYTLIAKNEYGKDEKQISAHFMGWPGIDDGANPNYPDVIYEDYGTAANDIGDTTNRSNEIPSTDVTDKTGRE

`O=c1cc(-c2ccccc2)oc2c(O)c(O)ccc12` [7,8-DHF, 7,8-dihydroxyflavone, reference compound]: the Kd (usually a measure of binding affinity in units of concentration) in data set [1] was found to be 0.016 ± 0.0034 µM.
For the molecule `Nc1c(/N=N/c2ccc(-c3ccc(/N=N/c4cc(S(=O)(=O)O)c5ccccc5c4N)cc3)cc2)cc(S(=O)(=O)O)c2ccccc12` [Congo red, reference compound], the IC50 (usually the concentration needed to halve the response being measured) at 6 days in data set [2] stood at 45 µM. Also, in data set [3] (induced untreated 0.87, uninduced 0.99), the Neurite branching was 1.00–1.06. In data set [3] (induced untreated 27.2 μm, uninduced 30.9 μm), the Neurite length is 30.3–31.5 μm.
For `O=c1c(O)c(-c2ccc(O)cc2)oc2cc(O)cc(O)c12` [Kaempferol, kaempferol, reference compound], in data set [4], the EC50 (as a rule, the concentration giving half of the maximal effect) was found to be 28 µM.
For the molecule `COc1ccc2cc(C(=O)c3ccccc3)c(=O)oc2c1` [LMDS-3], the EC50 in data set [5] stood at 21 µM; in data set [4], 132 µM. The IC50 at 6 days in data set [2] was 29 µM. In addition, the “Oxygen radical absorbance capacity, activity equivalent to Trolox” value in [6] came out at 12 μM Trolox.
With `CC(=O)Oc1ccc2cc(C(=O)c3ccccc3)c(=O)oc2c1` [LMDS-4], the EC50 was 14 µM in data set [5] and 126 µM in [4]. Besides, in data set [2], the IC50 at 6 days was determined as 25 µM. For the same molecule, the “Oxygen radical absorbance capacity, activity equivalent to Trolox” value in data set [6] is 16 μM Trolox.
On to BDNF: Brain-derived neurotrophic factor, for which, in the data set on p-TRKB (Y516 and Y817), the “p-TRKB (Y516/Y817) level” value is 96–104%. For the same molecule, the DsRed fluorescence intensity in [7] is 111–112%. Besides, in the data set on p-CREB (S133), the p-CREB level was 90–95%.

Values taken from publication PMC9654711, “Neuroprotective Action of Coumarin Derivatives through Activation of TRKB-CREB-BDNF Pathway and Reduction of Caspase Activity in Neuronal Cells Expressing Pro-Aggregated Tau Protein” (International Journal of Molecular Sciences, 2022).
